“Also recorded” adds a separate entry of the source.
Legend:
TNF-α = experiment: R848 stimulated TNF-α production in human whole blood; format: cell-based; settings: R848, 0.5 ug/mL, 5 hr
Procedure: (§1) Human whole blood assays were performed as described above with the exceptions listed below. […] Compounds were serially diluted in 100% DMSO (Sigma-Aldrich, D2650) followed by a 10× dilution into RPMI (Gibco, 11875). After the one-hour incubation with the compounds or vehicle, 2 μL of R848 (InvivoGen, tlrl-r848) in RPMI (Gibco, 11875) was added for a final concentration of 0.5 μg/mL to each well except for the no stimulus wells. After five hours of incubation with R848, plasma was harvested and assayed for TNF-α, IL-1β, IL-6 and IL-8 using Meso Scale Discovery Technology V-plex human cytokine kits according to the kit protocol.

IL-6 [1] = experiment: Ex vivo LPS-stimulated IL-6 in blood of dosed healthy subjects, PK/PD inhibitory Emax model; set-up: species or system human
Procedure: Blood samples of 10 mL were collected for PD analysis. For the SAD cohorts, blood was collected before dosing and 1, 12, and 24 hours after dosing. For the MAD cohorts, on day 1 blood was collected before the morning dose and 4 and 12 hours after the morning dose (prior to the evening dose); on day 7, blood was collected before the morning dose and 4 and 12 hours after the morning dose.
Additional details of the assays for analyzing p-HSP27 and cytokines are included in the Supplementary Information.
Pharmacodynamics. PD data analysis was conducted using Microsoft Excel 2010 (Microsoft, Redmond, WA), Meso Scale Discovery Workbench® analysis software (Rockville, MD), and Phoenix WinNonlin, version 8.2.
Sample Preparation for Cytokine Analysis. For each sample, 180 μL aliquots were transferred into 7 wells of a round bottom 96 well tissue culture polystyrene low evaporation plate. […] No outer wells on the plates were used and all wells surrounding the samples contained 200 μL of phosphate buffered saline.
DMSO was added to all wells in groups ‘A’ and ‘C’ to a final concentration of 0.1% ([…] of a 2% DMSO solution in DMEM containing 10% FBS and 1% penicillin/streptomycin/glutamine). […] Samples were mixed gently for 30 seconds on a plate shaker using pin tools, then placed in an incubator at 37° C./5% CO2 for 1 hour.
Samples in groups ‘A’ and ‘B’ were stimulated with lipopolysaccharide at a final concentration of 100 ng/mL. A stock solution of lipopolysaccharide at 1 mg/mL in DMEM containing 10% FBS and 1% penicillin/streptomycin was diluted to […] in DMEM containing 10% FBS and 1% penicillin/streptomycin, and […] of this working solution was added per well of blood for all samples in groups ‘A’ and ‘B’. […] of DMEM containing 10% FBS only was added per well of blood for all samples in group ‘C’ (unstimulated samples). Samples were mixed gently for 30 seconds on a plate shaker using pin tools, then placed in an incubator at 37° C./5% CO2 for 5 hours.
Following the incubation, the plates were removed from the incubator and sealed with adhesive clear plate seals. The plates were then centrifuged for 10 minutes at 1800×g at room temperature. […] of plasma was removed from each well and transferred to a 96-well polypropylene round bottom master plate, which was then sealed and frozen at −80° C. until all samples from the respective cohort were generated. Once all samples from a given cohort were generated, the samples were analyzed for cytokine (TNF-α, IL-1b, IL-6, and IL-8) production using Meso Scale Discovery Technology.
Analysis of Cytokine Levels Using Meso Scale Discovery Technology. All lipopolysaccharide plasma samples were analyzed for cytokine production with a V-Plex Human Proinflammatory Panel II (4-Plex) Kit from Meso Scale Discovery (Rockville, MD). The master plates containing the plasma samples were thawed on ice, and a daughter plate consisting of a 25-fold dilution of each plasma sample (3 μL of plasma plus 72 μL of Meso Scale Discovery Diluent 2) was generated for each master plate. The diluted plasma samples from the daughter plates were used in the cytokine analysis. The Meso Scale Discovery 4-plex plates were washed 3 times with 150 μL/well of wash buffer (1×KPL phosphate buffered saline with Tween 20 from SeraCare [Milford, MA]). Prepared calibrators and the samples from the daughter plates were added to the washed Meso Scale Discovery 4-plex plates at 50 μL/well. The 4-plex plates were sealed and shaken overnight at 4° C.
After the overnight incubation, the samples were removed by decanting. The 4-plex plates were then washed 3 times with 150 μL/well of wash buffer. […]

[2] = Phase 1 SAD/MAD safety and tolerability in healthy subjects (incl. 80/120 mg BID extension)
Procedure: Single ascending dose (SAD) cohorts.
Multiple ascending dose (MAD) cohorts. […] Subjects were admitted to the clinical facility on day −1 and remained at the site until 72 hours after the morning dose on day 7.
Safety and Tolerability Assessments. Adverse events, clinical laboratory tests, vital signs, an electrocardiogram, Holter monitoring, and physical examination results were evaluated for each subject in both parts of the study.
Methods: Safety, pharmacokinetics (PK) and pharmacodynamics (PD) were assessed in two cohorts of subjects in a randomized, observer-blind, placebo-controlled study in male and female healthy subjects aged 18-55 (n=77). The study consisted of twenty (20) subjects enrolled into 2 cohorts. […] The final dose was administered in the morning on Day 7. Blood samples were obtained Day 1—before dosing, Day 1—4 hours after dosing and Day 1—12 hours after dosing and Day 7—before dosing, Day 7—4 hours after dosing, day 7—12 hour after dosing and Day 7—24 hours after dosing for each subject.

[3] = test system: TNF-α, IL-1β, IL-6, and IL-8; experiment: Phase 2a RA study: ex vivo LPS-stimulated cytokines in patient blood; set-up: species or system human; settings: 50 mg BID, 12 weeks
IL-6 [4] = experiment: R848 stimulated IL-6 production in human whole blood; format: cell-based; settings: R848, 0.5 ug/mL, 5 hr
Procedure: as §1

[5] = all ATI-450 SAD and MAD cohorts, 3/48
[6] = all ATI-450 SAD and MAD cohorts, n = 48

Structure (SMILES): Cc1cnc(-c2ccnc(C(C)(C)O)n2)cc1-n1c(C)cc(OCc2ncc(F)cc2F)c(Cl)c1=O (single isomer, unassigned) [ATI-450, 3-chloro-4-((3,5-difluoropyridin-2-yl)methoxy)-2′-(2-(2-hydroxypropan-2-yl)pyrimidin-4-yl)-5′,6-dimethyl-2H-[1,4′-bipyridin]-2-one]
- IC50 (TNF-α): 34.8 ± 5 nM
- Cmax (Multiple of IC80) (IL-6 [1]; 50 mg BID, day 7): 0.3x
- Ctrough (Multiple of IC80) (IL-6 [1]; 50 mg BID, day 7): 0.1x
- inhibition at 50 mg (IL-6 [1]; Homo sapiens, 50 mg BID, part of the dosing interval): > 50%
- IC80 (IL-6 [1]; Homo sapiens, calculated from IC50, combined SAD and MAD data, read-out: IC80, plasma concentration at 80% of maximal inhibition): 0.748 µg/mL
- IC50 (IL-6 [1]; Homo sapiens, inhibitory Emax model, combined SAD and MAD data, read-out: IC50, plasma concentration at half maximal inhibition): 0.187 µg/mL
- IC80, plasma concentration at 80% of maximal inhibition (IL-6 [1]; calculated from IC50, combined SAD and MAD data): 0.7478 µg/mL
- subjects with TEAEs considered related to the study drug ([2]; 10 mg BID cohort, 1 of 8): 13%
- subjects with TEAEs considered related to the study drug ([2]; 30 mg BID cohort, 5 of 8): 63%
- subjects with TEAEs considered related to the study drug ([2]; 50 mg BID cohort, 3 of 8): 38%
- neutrophils ([2]; 50 mg BID, day 7 (baseline 3318.4 cells/μL)): 2514.4 cells/μL
- mean reduction in neutrophils ([2]; 50 mg BID, day 7 vs baseline): 24%
- Constipation, AE, n (%) ([2]; 80 mg BID, 7 days, n = 8): 1 (14%)
- Dizziness, AE, n (%) ([2]; 80 mg BID, 7 days, n = 8): 2 (25%)
- Headache, AE, n (%) ([2]; 80 mg BID, 7 days, n = 8): 2 (25%)
- Xerosis, AE, n (%) ([2]; 80 mg BID, 7 days, n = 8): 1 (13%)
- tolerability ([2]; 80 mg and 120 mg BID, 7 days): well tolerated with no severe adverse effects reported
- Abdominal Pain, AE, n (%) ([2]; 120 mg BID, 7 days, n = 8): 1 (13%)
- Dizziness, AE, n (%) ([2]; 120 mg BID, 7 days, n = 8): 6 (75%)
- Headache, AE, n (%) ([2]; 120 mg BID, 7 days, n = 8): 7 (88%)
- Loose stools, AE, n (%) ([2]; 120 mg BID, 7 days, n = 8): 1 (13%)
- Nausea, AE, n (%) ([2]; 120 mg BID, 7 days, n = 8): 2 (25%)
- Parasthesia, AE, n (%) ([2]; 120 mg BID, 7 days, n = 8): 2 (25%)
- Pharyngitis, AE, n (%) ([2]; 120 mg BID, 7 days, n = 8): 1 (13%)
- Xerosis, AE, n (%) ([2]; 120 mg BID, 7 days, n = 8): 5 (63%)
- neutrophils, laboratory change ([2]; MAD cohort, maximum effect Day 2 to Day 5): dose dependent reduction in neutrophils
- character of TEAEs ([2]; MAD cohorts 10-50 mg BID): mild, transient, and resolved without sequelae
- deaths, serious adverse events ([2]; MAD cohorts 10-50 mg BID): no deaths or SAEs
- subjects with TEAEs considered related to the study drug ([2]; MAD cohorts 10-50 mg BID, 9 of 24): 38%
- subjects reporting TEAEs ([2]; MAD cohorts 10-50 mg BID, 12 of 24): 50%
- vital signs, electrocardiograms, clinical laboratory values ([2]; SAD and MAD cohorts): No clinically significant findings
- character of TEAEs ([2]; SAD cohorts): mild, transient, and resolved without sequelae
- deaths, serious adverse events, discontinuations ([2]; SAD cohorts): No deaths or serious adverse events (SAEs)
- subjects with TEAEs considered related to the study drug ([2]; SAD cohorts, 4 of 24): 17%
- subjects reporting TEAEs ([2]; SAD cohorts, 7 of 24): 29%
- constipation, subjects with adverse event [2, 5]: 6.3%
- upper respiratory tract infection, subjects with adverse event [2, 5]: 6.3%
- dizziness, subjects with adverse event ([2]; all ATI-450 SAD and MAD cohorts, 6/48): 12.5%
- Abdominal pain, treatment-emergent adverse event, n subjects [2, 6]: 2
- Constipation, treatment-emergent adverse event, n subjects [2, 6]: 3
- Dizziness, treatment-emergent adverse event, n subjects [2, 6]: 6
- Headache, treatment-emergent adverse event, n subjects [2, 6]: 10
- Nausea, treatment-emergent adverse event, n subjects [2, 6]: 2
- Upper respiratory tract infection, treatment-emergent adverse event, n subjects [2, 6]: 3
- Vomiting, treatment-emergent adverse event, n subjects [2, 6]: 0
- subjects with TEAEs considered related to the study drug ([2]; single dose 10 mg cohort): 0 subjects
- subjects with TEAEs considered related to the study drug ([2]; single dose 30 mg cohort): 33%
- subjects with TEAEs considered related to the study drug ([2]; single dose 50 mg cohort): 17%
- subjects with TEAEs considered related to the study drug ([2]; single dose 100 mg cohort): 1 subject
- safety and tolerability ([2]; single doses up to 100 mg, multiple doses up to 50 mg BID for 7 days): generally safe and well tolerated
- ex vivo stimulated cytokines in RA patient blood [3]: sustained inhibition of proinflammatory cytokines; also recorded: marked and durable inhibition
- IC50 (IL-6 [4]): 79.2 ± 17.2 nM

Source: patent US11844801B2, “Oral compositions of MK2 pathway inhibitor for treatment of immune conditions” (priority 2020, dated 2023)
